From US20060154889A1, “Polyfluorinated nucleoside analogs and methods of use thereof” (priority 2004, published 2006)

Tested on: XTGAGCTCA
Assay: Dangling-end thermal denaturation, sequence XTGAGCTCA (Table 2)
Type: physicochemical
Settings: marker c
Procedure: (§1) The dangling-end experimental method was utilized to evaluate the ability of the fluorinated aromatic base analogues to stabilize DNA duplexes when substituted directly adjacent to the helix. The relative stabilizations were measured by comparison of the energetics for helix—coil melting transition of the “core “duplex (lacking any “dangling “nucleotide) to that containing the extra nucleotide. Five short self-complementary sequence contexts were used; the sequences were chosen because they had been shown previously to be well-behaved thermodynamically in the dangling-end configuration. Data from two of the contexts are shown in Table 1, and data for the remaining three show similar trends. By use of these five contexts we were able to compare stacking effects of the base analogues with all four neighboring DNA bases in the helix.
(§2) Methods for thermodynamic measurements. Thermal denaturation. […] Solutions were then heated to 90° C. for 5 minutes and annealed by slowly cooling to room temperature and then to 0° C.

For `OC[C@H]1O[C@@H](c2c(F)c(F)c(F)c(F)c2F)C[C@@H]1O` [pentafluorophenyl, 1′,2′-dideoxy-β-1′-(pentafluorophenyl)-D-ribofuranose], which “−G37” value is on record?
The value was 8.7 kcal.

And the “−H” value?
The value was 48.6 kcal.

And the “−S” value?
The value was 128 eu.

Same assay, conditions: marker d

For `OC[C@H]1O[C@@H](c2c(F)c(F)c(F)c(F)c2F)C[C@@H]1O` [pentafluorophenyl, 1′,2′-dideoxy-β-1′-(pentafluorophenyl)-D-ribofuranose], which “−G37” value is on record?
The value was 8.9 kcal.

Tested on: (dCGCGCG)2 core duplex
Assay: Dangling-end thermal denaturation, sequence XCGCGCG (Table 1)
Type: physicochemical
Settings: (dCGCGCG)2 core duplex
Procedure: (§3) The dangling-end experimental method was utilized to evaluate the ability of the fluorinated aromatic base analogues to stabilize DNA duplexes when substituted directly adjacent to the helix. The relative stabilizations were measured by comparison of the energetics for helix-coil melting transition of the “core “duplex (lacking any “dangling “nucleotide) to that containing the extra nucleotide. Five short self-complementary sequence contexts were used; the sequences were chosen because they had been shown previously to be well-behaved thermodynamically in the dangling-end configuration. Data from two of the contexts are shown in Table 1, and data for the remaining three show similar trends. By use of these five contexts we were able to compare stacking effects of the base analogues with all four neighboring DNA bases in the helix. Methods for thermodynamic measurements. Thermal denaturation. […] Solutions were then heated to 90° C. for 5 minutes and annealed by slowly cooling to room temperature and then to 0° C. […] Calculations.

Which “ΔΔG stacking (stability contributed)” value does the source give for `OC[C@H]1O[C@@H](c2c(F)c(F)c(F)c(F)c2F)C[C@@H]1O` [pentafluorophenyl, 1′,2′-dideoxy-β-1′-(pentafluorophenyl)-D-ribofuranose] here?
The value was −0.5 kcalmol^−1.

Same assay, conditions: XCGCGCG; 1 M NaCl, 10 mM sodium phosphate pH 7.0; 5.0 μM DNA-strand

With `OC[C@H]1OC(c2ccc(F)cc2)C[C@@H]1O` (stereo partly drawn) [4-fluorophenyl, 1′-(4-fluorophenyl)-2′-deoxy-D-ribose] as the compound, how does the Tm read?
Its Tm is 51.2 °C.

Which Tm does the source give for `OC[C@H]1O[C@@H](c2c(F)c(F)c(F)c(F)c2F)C[C@@H]1O` [pentafluorophenyl, 1′,2′-dideoxy-β-1′-(pentafluorophenyl)-D-ribofuranose] here?
The Tm was 44.2 °C.

Same assay, conditions: XCGCGCG; Van't Hoff plots

Which “−ΔG37” value does the source give for `OC[C@H]1OC(c2ccc(F)cc2)C[C@@H]1O` (stereo partly drawn) [4-fluorophenyl, 1′-(4-fluorophenyl)-2′-deoxy-D-ribose] here?
The value was 10.3 ± 0.3 kcal.

And the “−ΔH” value?
The value was 64.9 kcal.

And the “−ΔS” value?
The value was 175 eu.

Which results are given for `OC[C@H]1O[C@@H](c2c(F)c(F)c(F)c(F)c2F)C[C@@H]1O` [pentafluorophenyl, 1′,2′-dideoxy-β-1′-(pentafluorophenyl)-D-ribofuranose]?
−ΔG37: 8.5 ± 0.2 kcal; −ΔH: 39.1 kcal; −ΔS: 99 eu

Same assay, conditions: XCGCGCG; average from fits to individual melting curves

Which “−ΔG37” value does the source give for `OC[C@H]1OC(c2ccc(F)cc2)C[C@@H]1O` (stereo partly drawn) [4-fluorophenyl, 1′-(4-fluorophenyl)-2′-deoxy-D-ribose] here?
Its value is 9.9 ± 0.2 kcal.

Which “−ΔG37” value does the source give for `OC[C@H]1O[C@@H](c2c(F)c(F)c(F)c(F)c2F)C[C@@H]1O` [pentafluorophenyl, 1′,2′-dideoxy-β-1′-(pentafluorophenyl)-D-ribofuranose] here?
Its value is 8.7 ± 0.1 kcal.

Same assay, conditions: XCGCGCG; difference from core duplex

Which ΔΔG stacking does the source give for `OC[C@H]1OC(c2ccc(F)cc2)C[C@@H]1O` (stereo partly drawn) [4-fluorophenyl, 1′-(4-fluorophenyl)-2′-deoxy-D-ribose] here?
Its ΔΔG stacking is 2.0 ± 0.2.

With `OC[C@H]1O[C@@H](c2c(F)c(F)c(F)c(F)c2F)C[C@@H]1O` [pentafluorophenyl, 1′,2′-dideoxy-β-1′-(pentafluorophenyl)-D-ribofuranose] as the compound, how does the ΔΔG stacking read?
The ΔΔG stacking was 0.5 ± 0.2.

Same assay, conditions: XCGCGCG; vs core duplex

Which ΔTm does the source give for `OC[C@H]1OC(c2ccc(F)cc2)C[C@@H]1O` (stereo partly drawn) [4-fluorophenyl, 1′-(4-fluorophenyl)-2′-deoxy-D-ribose] here?
Its ΔTm is 9.8 °C.

With `OC[C@H]1O[C@@H](c2c(F)c(F)c(F)c(F)c2F)C[C@@H]1O` [pentafluorophenyl, 1′,2′-dideoxy-β-1′-(pentafluorophenyl)-D-ribofuranose] as the compound, how does the ΔTm read?
Its ΔTm is 2.9 °C.

Tested on: 5′XCGCGCG3′
Assay: Dangling end stacking in 6-bp self-complementary DNA (Table S3)
Type: physicochemical
Settings: 5′XCGCGCG3′ dangling base
Procedure: To seek evidence for the origins of this selectivity, we examined individual properties of the four nonpolar nucleoside analogues. Stacking was evaluated by the standard dangling end approach using a 6-bp self-complementary DNA.
Calculations. […] (Table 4 and Table 5)

Which results are given for `OC[C@H]1O[C@@H](n2ccc3c(F)c(F)c(F)c(F)c32)C[C@@H]1O` [^FI, 1′,2′-dideoxy-β-1′-(N-4,5,6,7-tetrafluoroindole)-D-ribofuranose]?
ΔG°37 (Van't Hoff): -11.1 ± 0.2 kcal; ΔG°37 (avg.): -11.2 ± 0.2 kcal; ΔG°37 (fits): -11.3 ± 0.2 kcal; ΔH° (van't Hoff): -52.6 kcal; ΔS° (Van't Hoff): −134 eu

With “1′,2′-dideoxy-β-1′-(N-indole)-D-ribofuranose [reference compound]” as the compound, how does the “ΔG°37 (Van't Hoff)” value read?
The value was -10.2 ± 0.3 kcal.

And the “ΔG°37 (avg.)” value?
The value was -10.0 ± 0.2 kcal.

And the “ΔG°37 (fits)” value?
Its value is -9.9 ± 0.1 kcal.

What about the “ΔH° (van't Hoff)” value of the same compound?
The value was -60.2 kcal.

What about the “ΔS° (Van't Hoff)” value of the same compound?
Its value is −161 eu.

Same assay, conditions: 5′XCGCGCG3′ dangling base; 1 M NaCl, 10 mM phosphate buffer (pH 7.0), 0.1 mM EDTA; 5.0 μM

With `OC[C@H]1O[C@@H](n2ccc3c(F)c(F)c(F)c(F)c32)C[C@@H]1O` [^FI, 1′,2′-dideoxy-β-1′-(N-4,5,6,7-tetrafluoroindole)-D-ribofuranose] as the compound, how does the Tm read?
The Tm was 59.3 °C.

Which Tm does the source give for “1′,2′-dideoxy-β-1′-(N-indole)-D-ribofuranose [reference compound]” here?
The Tm was 51.6 °C.

Same assay, conditions: ^FB vs B; ^FI vs I

Which “stacks more favorably than parent hydrocarbon” value does the source give for `OC[C@H]1O[C@@H](n2ccc3c(F)c(F)c(F)c(F)c32)C[C@@H]1O` [^FI, 1′,2′-dideoxy-β-1′-(N-4,5,6,7-tetrafluoroindole)-D-ribofuranose] here?
Its value is 1.1 kcal/mol.

Tested on: XAGCGCT
Assay: Dangling-end thermal denaturation, sequence XAGCGCT (Table 2)
Type: physicochemical
Settings: not given
Procedure: as §1, §2

Which G stacking does the source give for `OC[C@H]1O[C@@H](c2c(F)c(F)c(F)c(F)c2F)C[C@@H]1O` [pentafluorophenyl, 1′,2′-dideoxy-β-1′-(pentafluorophenyl)-D-ribofuranose] here?
The G stacking was 0.9.

Same assay, conditions: marker c

For `OC[C@H]1O[C@@H](c2c(F)c(F)c(F)c(F)c2F)C[C@@H]1O` [pentafluorophenyl, 1′,2′-dideoxy-β-1′-(pentafluorophenyl)-D-ribofuranose], which “−G37” value is on record?
Its value is 7.9 kcal.

And the “−H” value?
The value was 45.0 kcal.

What about the “−S” value of the same compound?
Its value is 120 eu.

Tested on: XGTAGCTAC
Assay: Dangling-end thermal denaturation, sequence XGTAGCTAC (Table 2)
Type: physicochemical
Settings: marker c
Procedure: as §1, §2

Which “−H” value does the source give for `OC[C@H]1O[C@@H](c2c(F)c(F)c(F)c(F)c2F)C[C@@H]1O` [pentafluorophenyl, 1′,2′-dideoxy-β-1′-(pentafluorophenyl)-D-ribofuranose] here?
Its value is 56.5 kcal.

And the “−S” value?
The value was 155 eu.

Tested on: XACAGCTGT
Assay: Dangling-end thermal denaturation, sequence XACAGCTGT (Table 1)
Type: physicochemical
Settings: 1 M NaCl, 10 mM sodium phosphate pH 7.0, 5.0 μM DNA-strand
Procedure: as §3

Which Tm does the source give for `OC[C@H]1OC(c2ccc(F)cc2)C[C@@H]1O` (stereo partly drawn) [4-fluorophenyl, 1′-(4-fluorophenyl)-2′-deoxy-D-ribose] here?
Its Tm is 48.7 °C.

Which Tm does the source give for `OC[C@H]1O[C@@H](c2c(F)c(F)c(F)c(F)c2F)C[C@@H]1O` [pentafluorophenyl, 1′,2′-dideoxy-β-1′-(pentafluorophenyl)-D-ribofuranose] here?
The Tm was 47.3 °C.

Same assay, conditions: Van't Hoff plots

What does the source list for `OC[C@H]1OC(c2ccc(F)cc2)C[C@@H]1O` (stereo partly drawn) [4-fluorophenyl, 1′-(4-fluorophenyl)-2′-deoxy-D-ribose]?
−ΔG37: 9.9 ± 0.1 kcal; −ΔH: 66.6 kcal; −ΔS: 183 eu

Which results are given for `OC[C@H]1O[C@@H](c2c(F)c(F)c(F)c(F)c2F)C[C@@H]1O` [pentafluorophenyl, 1′,2′-dideoxy-β-1′-(pentafluorophenyl)-D-ribofuranose]?
−ΔG37: 9.3 ± 0.0 kcal; −ΔH: 55.2 kcal; −ΔS: 148 eu

Same assay, conditions: average from fits to individual melting curves

With `OC[C@H]1OC(c2ccc(F)cc2)C[C@@H]1O` (stereo partly drawn) [4-fluorophenyl, 1′-(4-fluorophenyl)-2′-deoxy-D-ribose] as the compound, how does the “−ΔG37” value read?
Its value is 9.6 ± 0.1 kcal.

With `OC[C@H]1O[C@@H](c2c(F)c(F)c(F)c(F)c2F)C[C@@H]1O` [pentafluorophenyl, 1′,2′-dideoxy-β-1′-(pentafluorophenyl)-D-ribofuranose] as the compound, how does the “−ΔG37” value read?
The value was 9.3 ± 0.2 kcal.

Same assay, conditions: difference from core duplex

Which ΔΔG stacking does the source give for `OC[C@H]1OC(c2ccc(F)cc2)C[C@@H]1O` (stereo partly drawn) [4-fluorophenyl, 1′-(4-fluorophenyl)-2′-deoxy-D-ribose] here?
Its ΔΔG stacking is 1.8 ± 0.1.

For `OC[C@H]1O[C@@H](c2c(F)c(F)c(F)c(F)c2F)C[C@@H]1O` [pentafluorophenyl, 1′,2′-dideoxy-β-1′-(pentafluorophenyl)-D-ribofuranose], which ΔΔG stacking is on record?
The ΔΔG stacking was 1.3 ± 0.1.

Same assay, conditions: vs core duplex

For `OC[C@H]1OC(c2ccc(F)cc2)C[C@@H]1O` (stereo partly drawn) [4-fluorophenyl, 1′-(4-fluorophenyl)-2′-deoxy-D-ribose], which ΔTm is on record?
Its ΔTm is 8.7 °C.

For `OC[C@H]1O[C@@H](c2c(F)c(F)c(F)c(F)c2F)C[C@@H]1O` [pentafluorophenyl, 1′,2′-dideoxy-β-1′-(pentafluorophenyl)-D-ribofuranose], which ΔTm is on record?
Its ΔTm is 7.0 °C.

Tested on: not listed separately
Assay: Octanol-water partitioning of free nucleosides
Settings: not given
Procedure: We explicitly examined hydrophobicity of the four nucleosides by partitioning between 1-octanol and water.
Octanol-water partitioning. The experimental solvent partitioning studies for free nucleosides were carried out as described. Experiments were carried out in triplicate and the results averaged to increase accuracy.

Which “log P” value does the source give for `OC[C@H]1O[C@@H](n2ccc3c(F)c(F)c(F)c(F)c32)C[C@@H]1O` [^FI, 1′,2′-dideoxy-β-1′-(N-4,5,6,7-tetrafluoroindole)-D-ribofuranose] here?
The value was 1.66 (0.10).

Same assay, conditions: free nucleoside, 1-octanol and water, triplicate

For “1′,2′-dideoxy-β-1′-(N-indole)-D-ribofuranose [reference compound]”, which “log P” value is on record?
The value was 0.99 (0.10).
